Source: patent US20230085307A1, “PYRIDAZINONE COMPOUND AND HERBICIDE” (NISSAN CHEMICAL CORPORATION, priority 2019, published 2023)

Columns and labels:
persian speedwell [1] = test: Test Example 5: herbicidal effect by foliage application, plastic box (Table 20, symbol R); format: in vivo, Persian speedwell (Veronica persica)
Procedure, shortened: (§1)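 Sow seeds spot-wise in sterilized diluvial soil; cover with ~1.5 cm soil. Grow 14 days in greenhouse, 25° C. to 30° C. Spray foliage with emulsion diluted to predetermined amount. Rate effect after 3 weeks.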

velvetleaf [2] = test: Test Example 5: herbicidal effect by foliage application, plastic box (Table 20, symbol M); format: in vivo, velvetleaf (Abutilon theophrasti)
Procedure, shortened: as §1

windgrass [3] = test: Test Example 5: herbicidal effect by foliage application, plastic box (Table 20, symbol L); format: in vivo, windgrass (Apera spica-venti)
Procedure, shortened: as §1

green foxtail [4] = test: Test Example 5: herbicidal effect by foliage application, plastic box (Table 20, symbol G); format: in vivo, green foxtail (Setaria viridis)
Procedure, shortened: as §1

redroot pigweed [5] = test: Test Example 5: herbicidal effect by foliage application, plastic box (Table 20, symbol N); format: in vivo, redroot pigweed (Amaranthus retroflexus); conditions: amount of applied herbicide 320 g/ha; foliage application after 14-day growth; evaluated three weeks after application
Procedure, shortened: as §1

blackgrass [6] = test: Test Example 5: herbicidal effect by foliage application, plastic box (Table 20, symbol J); format: in vivo, blackgrass (Alopecurus myosuroides)
Procedure, shortened: as §1

lambsquarters [7] = test: Test Example 5: herbicidal effect by foliage application, plastic box (Table 20, symbol O); format: in vivo, lambsquarters (Chenopodium album); conditions: amount of applied herbicide 320 g/ha; foliage application after 14-day growth; evaluated three weeks after application
Procedure, shortened: as §1

rice flat sedge = test: Test Example 3: herbicidal effect by foliage application, Wagner pot (Table 18, symbol E); format: in vivo, rice flat sedge (Cyperus iria); conditions: 320 g/ha
Procedure, shortened: (§2)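 Plants were sown in alluvial soil held under 0.1–0.5 cm standing water and grown 14 days in a greenhouse at 25–30 °C. An emulsifiable formulation, water-diluted to the set dose, was then sprayed onto the foliage, and effects were scored three weeks later using previously defined criteria.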

windgrass [8] = test: Test Example 4: herbicidal effect by soil treatment (Table 19, symbol L); format: in vivo, windgrass (Apera spica-venti); conditions: amount of applied herbicide 320 g/ha
Procedure, shortened: (§3)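 Applied as a water-diluted emulsion, the compound was sprayed onto soil covering newly sown seeds. Evaluation came three weeks after application, in a greenhouse held at 25° C. to 30° C.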

Italian ryegrass [9] = test: Test Example 4: herbicidal effect by soil treatment (Table 19, symbol K); format: in vivo, Italian ryegrass (Lolium multiflorum); conditions: amount of applied herbicide 320 g/ha
Procedure, shortened: as §3

barnyard grass [10] = test: Test Example 3: herbicidal effect by foliage application, Wagner pot (Table 18, symbol H); format: in vivo, barnyard grass (Echinochloa crus-galli); conditions: 320 g/ha
Procedure, shortened: as §2

barnyard grass [11] = test: Test Example 5: herbicidal effect by foliage application, plastic box (Table 20, symbol H); format: in vivo, barnyard grass (Echinochloa crus-galli)
Procedure, shortened: as §1

lambsquarters [12] = test: Test Example 4: herbicidal effect by soil treatment (Table 19, symbol O); format: in vivo, lambsquarters (Chenopodium album); conditions: amount of applied herbicide 320 g/ha
Procedure, shortened: as §3

southern crabgrass [13] = test: Test Example 5: herbicidal effect by foliage application, plastic box (Table 20, symbol F); format: in vivo, southern crabgrass (Digitaria ciliaris)
Procedure, shortened: as §1

false cleavers = test: Test Example 5: herbicidal effect by foliage application, plastic box (Table 20, symbol Q); format: in vivo, false cleavers (Galium spurium)
Procedure, shortened: as §1

wild oat [14] = test: Test Example 4: herbicidal effect by soil treatment (Table 19, symbol I); format: in vivo, wild oat (Avena fatua); conditions: amount of applied herbicide 320 g/ha
Procedure, shortened: as §3

Italian ryegrass [15] = test: Test Example 5: herbicidal effect by foliage application, plastic box (Table 20, symbol K); format: in vivo, Italian ryegrass (Lolium multiflorum)
Procedure, shortened: as §1

persian speedwell [16] = test: Test Example 4: herbicidal effect by soil treatment (Table 19, symbol R); format: in vivo, Persian speedwell (Veronica persica); conditions: amount of applied herbicide 320 g/ha
Procedure, shortened: as §3

blackgrass [17] = test: Test Example 4: herbicidal effect by soil treatment (Table 19, symbol J); format: in vivo, blackgrass (Alopecurus myosuroides); conditions: amount of applied herbicide 320 g/ha
Procedure, shortened: as §3

barnyard grass [18] = test: Test Example 4: herbicidal effect by soil treatment (Table 19, symbol H); format: in vivo, barnyard grass (Echinochloa crus-galli); conditions: amount of applied herbicide 320 g/ha
Procedure, shortened: as §3

green foxtail [19] = test: Test Example 4: herbicidal effect by soil treatment (Table 19, symbol G); format: in vivo, green foxtail (Setaria viridis); conditions: amount of applied herbicide 320 g/ha
Procedure, shortened: as §3

velvetleaf [20] = test: Test Example 4: herbicidal effect by soil treatment (Table 19, symbol M); format: in vivo, velvetleaf (Abutilon theophrasti); conditions: amount of applied herbicide 320 g/ha
Procedure, shortened: as §3

chickweed [21] = test: Test Example 5: herbicidal effect by foliage application, plastic box (Table 20, symbol P); format: in vivo, common chickweed (Stellaria media); conditions: amount of applied herbicide 320 g/ha; foliage application after 14-day growth; evaluated three weeks after application
Procedure, shortened: as §1

wild oat [22] = test: Test Example 5: herbicidal effect by foliage application, plastic box (Table 20, symbol I); format: in vivo, wild oat (Avena fatua)
Procedure, shortened: as §1

chickweed [23] = test: Test Example 4: herbicidal effect by soil treatment (Table 19, symbol P); format: in vivo, common chickweed (Stellaria media); conditions: amount of applied herbicide 320 g/ha
Procedure, shortened: as §3

Chinese sprangletop = test: Test Example 3: herbicidal effect by foliage application, Wagner pot (Table 18, symbol D); format: in vivo, chinese sprangletop (Leptochloa chinensis); conditions: 320 g/ha
Procedure, shortened: as §2

redroot pigweed [24] = test: Test Example 4: herbicidal effect by soil treatment (Table 19, symbol N); format: in vivo, redroot pigweed (Amaranthus retroflexus); conditions: amount of applied herbicide 320 g/ha
Procedure, shortened: as §3

southern crabgrass [25] = test: Test Example 4: herbicidal effect by soil treatment (Table 19, symbol F); format: in vivo, southern crabgrass (Digitaria ciliaris); conditions: amount of applied herbicide 320 g/ha
Procedure, shortened: as §3

oval-leafed pondweed = test: Test Example 1: herbicidal activity, application before weed generation under submerged conditions (Table 16, symbol C); format: in vivo, oval-leafed pondweed (Monochoria vaginalis); conditions: amount of applied herbicide 320 g/ha
Procedure, shortened: (§4)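 Submerged Wagner pots (alluvial soil, 4 cm water) sown with weed seeds and planted with 2.5-leaf rice seedlings; emulsifiable concentrate diluted in water applied to water surface on sowing day. Held in greenhouse at 25-30 °C; injury scored 0-5 by herbicidal rate after three weeks.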

late watergrass = test: Test Example 1: herbicidal activity, application before weed generation under submerged conditions (Table 16, symbol A); format: in vivo, late watergrass (Echinochloa oryzicola); conditions: amount of applied herbicide 320 g/ha
Procedure, shortened: as §4

Japanese bulrush = test: Test Example 1: herbicidal activity, application before weed generation under submerged conditions (Table 16, symbol B); format: in vivo, Japanese bulrush (Schoenoplectus juncoides); conditions: amount of applied herbicide 320 g/ha
Procedure, shortened: as §4

[26] = amount of applied herbicide 320 g/ha, foliage application after 14-day growth, evaluated three weeks after application
[27] = foliage application, 320 g/ha, three weeks after application

Structure (SMILES): COc1ccc(-c2sc3cc(F)c(F)cc3c2-c2c(O)c(C)nn(C)c2=O)cc1 [5-014]
- Herbicidal effect by foliage application, R: persian speedwell (persian speedwell [1]; [26]): 5 (Herbicidal rate of 90% or more (almost completely withered))
- Herbicidal effect by foliage application, M: velvetleaf (velvetleaf [2]; [26]): 5 (Herbicidal rate of 90% or more (almost completely withered))
- Herbicidal effect by foliage application, L: windgrass (windgrass [3]; [26]): 0 (Herbicidal rate of 5% or less (almost no effect))
- Herbicidal effect by foliage application, G: green foxtail (green foxtail [4]; [26]): 2 (Herbicidal rate of 20% or more and less than 40%)
- Herbicidal effect by foliage application, N: redroot pigweed (redroot pigweed [5]): 5 (Herbicidal rate of 90% or more (almost completely withered))
- Herbicidal effect by foliage application, J: blackgrass (blackgrass [6]; [26]): 0 (Herbicidal rate of 5% or less (almost no effect))
- Herbicidal effect by foliage application, O: lambsquarters (lambsquarters [7]): 5 (Herbicidal rate of 90% or more (almost completely withered))
- herbicidal effect on rice flat sedge (E) (rice flat sedge): 5 (Herbicidal rate of 90% or more (almost completely withered))
- L: windgrass, herbicidal effect grade (windgrass [8]): 0 (Herbicidal rate of 5% or less (almost no effect))
- K: Italian ryegrass, herbicidal effect grade (Italian ryegrass [9]): 0 (Herbicidal rate of 5% or less (almost no effect))
- herbicidal effect on barnyard grass (H) (barnyard grass [10]): 4 (Herbicidal rate of 70% or more and less than 90%)
- Herbicidal effect by foliage application, H: barnyard grass (barnyard grass [11]; [26]): 2 (Herbicidal rate of 20% or more and less than 40%)
- O: lambsquarters, herbicidal effect grade (lambsquarters [12]): 5 (Herbicidal rate of 90% or more (almost completely withered))
- Herbicidal effect by foliage application, F: southern crabgrass (southern crabgrass [13]; [26]): 3 (Herbicidal rate of 40% or more and less than 70%)
- Herbicidal effect by foliage application, Q: false cleavers (false cleavers; [26]): 4 (Herbicidal rate of 70% or more and less than 90%)
- I: wild oat, herbicidal effect grade (wild oat [14]): 0 (Herbicidal rate of 5% or less (almost no effect))
- Herbicidal effect by foliage application, K: Italian ryegrass (Italian ryegrass [15]; [26]): 4 (Herbicidal rate of 70% or more and less than 90%)
- R: persian speedwell, herbicidal effect grade (persian speedwell [16]): 5 (Herbicidal rate of 90% or more (almost completely withered))
- J: blackgrass, herbicidal effect grade (blackgrass [17]): 0 (Herbicidal rate of 5% or less (almost no effect))
- H: barnyard grass, herbicidal effect grade (barnyard grass [18]): 2 (Herbicidal rate of 20% or more and less than 40%)
- G: green foxtail, herbicidal effect grade (green foxtail [19]): 1 (Herbicidal rate of 5% or more and less than 20%)
- M: velvetleaf, herbicidal effect grade (velvetleaf [20]): 4 (Herbicidal rate of 70% or more and less than 90%)
- Herbicidal effect by foliage application, P: chickweed (chickweed [21]): 5 (Herbicidal rate of 90% or more (almost completely withered))
- Herbicidal effect by foliage application, I: wild oat (wild oat [22]; [26]): 0 (Herbicidal rate of 5% or less (almost no effect))
- P: chickweed, herbicidal effect grade (chickweed [23]): 3 (Herbicidal rate of 40% or more and less than 70%)
- herbicidal effect on Chinese sprangletop (D) (Chinese sprangletop): 0 (Herbicidal rate of 5% or less (almost no effect))
- N: redroot pigweed, herbicidal effect grade (redroot pigweed [24]): 5 (Herbicidal rate of 90% or more (almost completely withered))
- F: southern crabgrass, herbicidal effect grade (southern crabgrass [25]): 0 (Herbicidal rate of 5% or less (almost no effect))

Structure (SMILES): COc1cc2sc(-c3ccccc3)c(-c3c(O)c(C)nn(C)c3=O)c2cc1OC [5-055]
- herbicidal effect on persian speedwell (R) (persian speedwell [1]; [27]): 4 (Herbicidal rate of 70% or more and less than 90%)
- herbicidal effect on velvetleaf (M) (velvetleaf [2]; [27]): 2 (Herbicidal rate of 20% or more and less than 40%)
- Herbicidal effect, C: oval-leafed pondweed (oval-leafed pondweed): 0 (Herbicidal rate of 5% or less (almost no effect))
- herbicidal effect on windgrass (L) (windgrass [3]; [27]): 0 (Herbicidal rate of 5% or less (almost no effect))
- herbicidal effect on green foxtail (G) (green foxtail [4]; [27]): 0 (Herbicidal rate of 5% or less (almost no effect))
- herbicidal effect on blackgrass (J) (blackgrass [6]; [27]): 0 (Herbicidal rate of 5% or less (almost no effect))
- herbicidal effect on rice flat sedge (E) (rice flat sedge): 3 (Herbicidal rate of 40% or more and less than 70%)
- herbicidal effect on barnyard grass (H) (barnyard grass [10]): 1 (Herbicidal rate of 5% or more and less than 20%)
- herbicidal effect on barnyard grass (H) (barnyard grass [11]; [27]): 0 (Herbicidal rate of 5% or less (almost no effect))
- herbicidal effect on southern crabgrass (F) (southern crabgrass [13]; [27]): 0 (Herbicidal rate of 5% or less (almost no effect))
- herbicidal effect on false cleavers (Q) (false cleavers; [27]): 0 (Herbicidal rate of 5% or less (almost no effect))
- herbicidal effect on Italian ryegrass (K) (Italian ryegrass [15]; [27]): 4 (Herbicidal rate of 70% or more and less than 90%)
- Herbicidal effect, A: late watergrass (late watergrass): 2 (Herbicidal rate of 20% or more and less than 40%)
- herbicidal effect on wild oat (I) (wild oat [22]; [27]): 0 (Herbicidal rate of 5% or less (almost no effect))
- herbicidal effect on Chinese sprangletop (D) (Chinese sprangletop): 0 (Herbicidal rate of 5% or less (almost no effect))
- Herbicidal effect, B: Japanese bulrush (Japanese bulrush): 0 (Herbicidal rate of 5% or less (almost no effect))
